Data from PubChem BioAssay (NCI).
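Each compound was tested at five concentrations against cells in 96-well plates for 48 hours. GI50 is the concentration that inhibits growth by half. Definition used: TGI = concentration required for complete inhibition of growth.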

Key:
Assay in all cases: NCI tumour cell line growth inhibition, 48 h
MOLT-4 leukemia = test system: MOLT-4 leukemia
DU-145 prostate = test system: DU-145 prostate
SW-620 colon = test system: SW-620 colon
SNB-19 CNS = test system: SNB-19 CNS
IGROV1 ovarian = test system: IGROV1 ovarian
A498 renal = test system: A498 renal
SK-OV-3 ovarian = test system: SK-OV-3 ovarian
NCI-H460 lung = test system: NCI-H460 lung
SK-MEL-28 melanoma = test system: SK-MEL-28 melanoma
OVCAR-5 ovarian = test system: OVCAR-5 ovarian
ACHN renal = test system: ACHN renal
SK-MEL-5 melanoma = test system: SK-MEL-5 melanoma
NCI-H23 lung = test system: NCI-H23 lung
TK-10 renal = test system: TK-10 renal
RPMI-8226 leukemia = test system: RPMI-8226 leukemia
HCT-116 colon = test system: HCT-116 colon
NCI-H226 lung = test system: NCI-H226 lung
PC-3 prostate = test system: PC-3 prostate
SK-MEL-2 melanoma = test system: SK-MEL-2 melanoma
LOX IMVI melanoma = test system: LOX IMVI melanoma
HL-60(TB) leukemia = test system: HL-60(TB) leukemia
KM12 colon = test system: KM12 colon
HCC-2998 colon = test system: HCC-2998 colon
MDA-MB-231 breast = test system: MDA-MB-231 breast
SNB-75 CNS = test system: SNB-75 CNS
MCF7 breast = test system: MCF7 breast
UACC-257 melanoma = test system: UACC-257 melanoma
A549 NSCLC = test system: A549 NSCLC
HOP-92 NSCLC = test system: HOP-92 NSCLC
SF-295 CNS = test system: SF-295 CNS
BT-549 breast = test system: BT-549 breast
MDA-MB-468 breast = test system: MDA-MB-468 breast
OVCAR-8 ovarian = test system: OVCAR-8 ovarian
COLO 205 colon = test system: COLO 205 colon
K-562 leukemia = test system: K-562 leukemia
SF-539 CNS = test system: SF-539 CNS
SN12C renal = test system: SN12C renal
UO-31 renal = test system: UO-31 renal
786-0 renal = test system: 786-0 renal
NCI-H522 lung = test system: NCI-H522 lung
U251 CNS = test system: U251 CNS
UACC-62 melanoma = test system: UACC-62 melanoma
HS 578T breast = test system: HS 578T breast
CCRF-CEM leukemia = test system: CCRF-CEM leukemia
HOP-62 NSCLC = test system: HOP-62 NSCLC
OVCAR-4 ovarian = test system: OVCAR-4 ovarian
T-47D breast = test system: T-47D breast
EKVX NSCLC = test system: EKVX NSCLC
HT29 colon = test system: HT29 colon
HCT-15 colon = test system: HCT-15 colon
M14 melanoma = test system: M14 melanoma
SF-268 CNS = test system: SF-268 CNS
SR leukemia = test system: SR leukemia
CAKI-1 renal = test system: CAKI-1 renal
RXF 393 renal = test system: RXF 393 renal
OVCAR-3 ovarian = test system: OVCAR-3 ovarian
MALME-3M melanoma = test system: MALME-3M melanoma
MDA-MB-435 = test system: MDA-MB-435

`O=C(c1ccc(Cl)cc1)C1[C@H](c2ccc(Br)cc2)[C@@H](c2ccccc2)NC12C(=O)Nc1ccc(Br)cc12` (stereo partly specified) showed a GI50 (MOLT-4 leukemia) of 1.39 µM, a TGI (MOLT-4 leukemia) of 5.05 µM and a GI50 (DU-145 prostate) of 2.81 µM. For the same compound, the TGI (DU-145 prostate) was 9.37 µM, the GI50 (SW-620 colon) was 2.24 µM and the TGI (SW-620 colon) was 8.37 µM. For the same compound, the GI50 (SNB-19 CNS) was 3.95 µM, the TGI (SNB-19 CNS) was 10.9 µM and the GI50 (IGROV1 ovarian) was 2.46 µM. It also gave a TGI (IGROV1 ovarian) of 8.43 µM, a GI50 (A498 renal) of 5.34 µM and a TGI (A498 renal) of 11.6 µM. For the same compound, the GI50 (SK-OV-3 ovarian) was 5.49 µM, the TGI (SK-OV-3 ovarian) was 13.1 µM and the GI50 (NCI-H460 lung) was 1.07 µM. It also gave a TGI (NCI-H460 lung) of 2.54 µM, a GI50 (SK-MEL-28 melanoma) of 4.78 µM and a TGI (SK-MEL-28 melanoma) of 10.7 µM. The GI50 (OVCAR-5 ovarian) was 3.55 µM, the TGI (OVCAR-5 ovarian) was 9.88 µM and the GI50 (ACHN renal) was 1.52 µM. For the same compound, the TGI (ACHN renal) was 5.07 µM, the GI50 (SK-MEL-5 melanoma) was 6.2 µM and the TGI (SK-MEL-5 melanoma) was 12.6 µM. The GI50 (NCI-H23 lung) was 1.72 µM, the TGI (NCI-H23 lung) was 6.78 µM and the GI50 (TK-10 renal) was 3.07 µM. The TGI (TK-10 renal) was 10 µM, the GI50 (RPMI-8226 leukemia) was 1.45 µM and the TGI (RPMI-8226 leukemia) was 4.86 µM. For the same compound, the GI50 (HCT-116 colon) was 1.09 µM, the TGI (HCT-116 colon) was 2.35 µM and the GI50 (NCI-H226 lung) was 1.81 µM. The TGI (NCI-H226 lung) was 7.96 µM, the GI50 (PC-3 prostate) was 1.65 µM and the TGI (PC-3 prostate) was 6.18 µM. It also gave a GI50 (SK-MEL-2 melanoma) of 5.3 µM, a TGI (SK-MEL-2 melanoma) of 11.5 µM and a GI50 (LOX IMVI melanoma) of 0.927 µM. The TGI (LOX IMVI melanoma) was 1.99 µM, the GI50 (HL-60(TB) leukemia) was 1.45 µM and the TGI (HL-60(TB) leukemia) was 6.79 µM. For the same compound, the GI50 (KM12 colon) was 1.82 µM, the TGI (KM12 colon) was 7.45 µM and the GI50 (HCC-2998 colon) was 1.62 µM. It also gave a TGI (HCC-2998 colon) of 4.99 µM, a GI50 (MDA-MB-231 breast) of 1.4 µM and a TGI (MDA-MB-231 breast) of 4.37 µM. For the same compound, the GI50 (SNB-75 CNS) was 1.55 µM, the TGI (SNB-75 CNS) was 8.89 µM and the GI50 (MCF7 breast) was 1.48 µM. The TGI (MCF7 breast) was 5.24 µM, the GI50 (UACC-257 melanoma) was 3.29 µM and the TGI (UACC-257 melanoma) was 9.91 µM. For the same compound, the GI50 (A549 NSCLC) was 1.6 µM, the TGI (A549 NSCLC) was 6.03 µM and the GI50 (HOP-92 NSCLC) was 1.38 µM. The TGI (HOP-92 NSCLC) was 4.1 µM, the GI50 (SF-295 CNS) was 2.13 µM and the TGI (SF-295 CNS) was 8.48 µM. The GI50 (BT-549 breast) was 2.47 µM, the TGI (BT-549 breast) was 8.33 µM and the GI50 (MDA-MB-468 breast) was 1.55 µM. For the same compound, the TGI (MDA-MB-468 breast) was 7.73 µM, the GI50 (OVCAR-8 ovarian) was 1.93 µM and the TGI (OVCAR-8 ovarian) was 6.97 µM. For the same compound, the GI50 (COLO 205 colon) was 0.946 µM, the TGI (COLO 205 colon) was 2.08 µM and the GI50 (K-562 leukemia) was 1.65 µM. For the same compound, the TGI (K-562 leukemia) was 6.45 µM, the GI50 (SF-539 CNS) was 4.67 µM and the TGI (SF-539 CNS) was 10.8 µM. The GI50 (SN12C renal) was 1.04 µM, the TGI (SN12C renal) was 2.43 µM and the GI50 (UO-31 renal) was 1.53 µM. The TGI (UO-31 renal) was 6.36 µM, the GI50 (786-0 renal) was 1.34 µM and the TGI (786-0 renal) was 4.15 µM. It also gave a GI50 (NCI-H522 lung) of 1.42 µM, a TGI (NCI-H522 lung) of 6.69 µM and a GI50 (U251 CNS) of 1.53 µM. The TGI (U251 CNS) was 6.07 µM, the GI50 (UACC-62 melanoma) was 2.94 µM and the TGI (UACC-62 melanoma) was 9.44 µM. For the same compound, the GI50 (HS 578T breast) was 4.15 µM, the TGI (HS 578T breast) was 18.2 µM and the GI50 (CCRF-CEM leukemia) was 1.49 µM. For the same compound, the TGI (CCRF-CEM leukemia) was 4.98 µM, the GI50 (HOP-62 NSCLC) was 5.17 µM and the TGI (HOP-62 NSCLC) was 11.5 µM. The GI50 (OVCAR-4 ovarian) was 2.23 µM, the TGI (OVCAR-4 ovarian) was 9.06 µM and the GI50 (T-47D breast) was 1.74 µM. It also gave a TGI (T-47D breast) of 7.41 µM, a GI50 (EKVX NSCLC) of 1.94 µM and a TGI (EKVX NSCLC) of 8.07 µM. The GI50 (HT29 colon) was 1.19 µM, the TGI (HT29 colon) was 3.09 µM and the GI50 (HCT-15 colon) was 1.6 µM. It also gave a TGI (HCT-15 colon) of 6.07 µM, a GI50 (M14 melanoma) of 1.89 µM and a TGI (M14 melanoma) of 7.61 µM. The GI50 (SF-268 CNS) was 1.88 µM, the TGI (SF-268 CNS) was 9.16 µM and the GI50 (SR leukemia) was 1.03 µM. It also gave a TGI (SR leukemia) of 2.99 µM, a GI50 (CAKI-1 renal) of 1.71 µM and a TGI (CAKI-1 renal) of 6.79 µM. It also gave a GI50 (RXF 393 renal) of 1.18 µM, a TGI (RXF 393 renal) of 3.25 µM and a GI50 (OVCAR-3 ovarian) of 2.42 µM. The TGI (OVCAR-3 ovarian) was 8.6 µM, the GI50 (MALME-3M melanoma) was 4.86 µM and the TGI (MALME-3M melanoma) was 10.7 µM. It also gave a GI50 (MDA-MB-435) of 2.79 µM and a TGI (MDA-MB-435) of 9.4 µM.
